Where no end group is shown, it is not given here.

The conditions of assay [1]: cited from earlier work; for OA pain / joint function: people with OA.
The conditions of assay [2]: VTA / midbrain dopamine neurons; cited from earlier work.
For assay [3] the following is noted: cited from earlier work.
For assay [4] the following is noted: cited from earlier work. This is another data set of the same source.
For assay [5] the following is noted: repeated stress; cited from earlier work.
A short description of assay [6]: Compliance with Trexan after rapid detoxification of methadone patients. It counts as in vivo, human. The settings on record: P<0.0001. The method, then:
Over the last decade, a new rapid method to detoxify either methadone or heroin addicts utilizing TrexanR sparked interest in many treatment centers throughout the United States, Canada, as well as many countries on a worldwide basis. […] It may also be interesting too further test this hypothesis with the sublingual combination of the partial opiate mu receptor agonist buprenorphrine. The ingredients tested included DL-phenylalanine (2760 mg/day), L-Glutamine (150 mg/day), chromium picolinate (360 micrograms/day), pyridoxal-5-phosphate (30 mg/day). • Most recently a study was performed by Julia Ross best selling author of The Diet Cure (Viking Press USA, 1999; Penguin UK, Au, and USA, 2000), in an outpatient clinic in Mill Valley, Calif. involving amino-acid therapy and enkephalinase inhibition based on Blum's work. […]

A further assay has as its system release of serotonin. The settings on record: long lasting and dose dependent; cited from earlier work.
The conditions of assay [7]: double-blind placebo controlled; cited from earlier work.
Another assay deals with synaptosomal dopamine. The settings on record: cited from earlier work.
A short description of assay [8]: Enkephalinase inhibitors in mice: brain enkephalins and alcohol preference. It counts as in vivo. The settings on record: for alcohol preference: acceptance and 14 day preference test; for brain enkephalins: d-phenylalanine 500 mg/kg/day 18 days, metabolite 25 micrograms i.c.v.
The conditions of assay [9]: in vivo; cited from earlier work.
The test system of assay [10] is brain dopamine and serotonin flux. The settings on record: cited from earlier work.
Assay [11] deals with sweet and bitter receptors on the tongue. The conditions noted are these: in vivo; cited from earlier work.
The conditions of assay [12]: direct microinjection; cited from earlier work.
Another assay addresses T1, D2 receptors in the Nacc (Rattus norvegicus, UniProt P61169).
T1 construct: from tissue; host or cells: nucleus accumbens in vivo; study cited from the literature
The conditions noted are these: bilateral, nmol/side; cited from earlier work.

The conditions of assay [13]: chronic treatment; cited from earlier work.
The target of a further assay is T2, insulin receptor (IR) (Mus musculus, UniProt P15208).
T2 construct: endogenous in cells; study cited from the literature
The settings on record: cited from earlier work.

T2 sequence (P15208 28-748 limits assumed): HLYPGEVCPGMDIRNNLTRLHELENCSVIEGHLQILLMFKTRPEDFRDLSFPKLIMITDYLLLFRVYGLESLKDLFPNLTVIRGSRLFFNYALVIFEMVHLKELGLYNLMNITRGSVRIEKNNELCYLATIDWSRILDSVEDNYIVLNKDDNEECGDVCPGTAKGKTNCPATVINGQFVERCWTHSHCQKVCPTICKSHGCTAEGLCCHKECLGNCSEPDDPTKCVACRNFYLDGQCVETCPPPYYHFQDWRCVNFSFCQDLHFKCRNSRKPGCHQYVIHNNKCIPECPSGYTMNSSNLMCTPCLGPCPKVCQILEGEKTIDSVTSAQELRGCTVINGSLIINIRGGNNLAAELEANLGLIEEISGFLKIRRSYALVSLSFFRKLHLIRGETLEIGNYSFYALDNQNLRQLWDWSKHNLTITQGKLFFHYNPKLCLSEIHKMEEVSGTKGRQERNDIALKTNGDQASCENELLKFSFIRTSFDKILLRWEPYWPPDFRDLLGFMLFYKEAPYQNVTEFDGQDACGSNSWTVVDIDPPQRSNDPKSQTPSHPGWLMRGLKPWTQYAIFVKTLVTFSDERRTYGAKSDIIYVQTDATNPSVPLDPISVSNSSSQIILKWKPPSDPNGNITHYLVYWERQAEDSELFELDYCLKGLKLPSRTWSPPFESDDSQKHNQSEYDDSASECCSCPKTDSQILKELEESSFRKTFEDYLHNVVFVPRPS
T2 sequence (P15208 753-1372 limits assumed): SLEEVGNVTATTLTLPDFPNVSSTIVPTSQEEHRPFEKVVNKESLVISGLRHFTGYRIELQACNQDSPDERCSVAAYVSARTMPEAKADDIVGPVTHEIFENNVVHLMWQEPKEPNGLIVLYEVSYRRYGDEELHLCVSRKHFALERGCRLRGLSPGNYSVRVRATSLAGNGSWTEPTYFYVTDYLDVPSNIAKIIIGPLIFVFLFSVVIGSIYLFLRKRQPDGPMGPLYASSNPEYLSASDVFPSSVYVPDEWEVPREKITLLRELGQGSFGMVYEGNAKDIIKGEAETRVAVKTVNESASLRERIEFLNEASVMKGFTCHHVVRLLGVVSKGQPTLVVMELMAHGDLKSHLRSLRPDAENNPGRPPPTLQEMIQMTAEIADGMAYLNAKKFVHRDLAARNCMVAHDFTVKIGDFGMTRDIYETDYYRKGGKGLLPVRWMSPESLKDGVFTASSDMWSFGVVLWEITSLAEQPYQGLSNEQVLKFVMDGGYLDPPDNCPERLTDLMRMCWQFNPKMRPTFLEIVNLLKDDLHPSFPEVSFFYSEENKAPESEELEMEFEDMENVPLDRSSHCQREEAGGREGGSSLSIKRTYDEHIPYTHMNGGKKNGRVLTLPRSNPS
T1 sequence (P61169 whole entry): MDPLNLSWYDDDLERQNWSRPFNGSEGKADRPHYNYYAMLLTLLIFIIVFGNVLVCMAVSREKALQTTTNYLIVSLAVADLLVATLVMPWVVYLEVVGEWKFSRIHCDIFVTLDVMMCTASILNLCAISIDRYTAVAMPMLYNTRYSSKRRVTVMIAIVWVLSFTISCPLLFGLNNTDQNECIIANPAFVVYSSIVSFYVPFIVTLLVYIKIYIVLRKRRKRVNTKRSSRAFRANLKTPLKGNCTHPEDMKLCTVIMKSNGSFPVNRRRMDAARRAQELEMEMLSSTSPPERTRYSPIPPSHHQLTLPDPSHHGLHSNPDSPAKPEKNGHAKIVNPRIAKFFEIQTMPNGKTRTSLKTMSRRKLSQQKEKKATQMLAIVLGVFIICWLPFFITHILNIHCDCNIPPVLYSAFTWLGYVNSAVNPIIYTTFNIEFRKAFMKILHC

Take `C[S+](CC[C@H](N)C(=O)[O-])C[C@H]1O[C@@H](n2cnc3c(N)ncnc32)[C@H](O)[C@@H]1O` (stereo partly drawn) [SAM-e, S-adenosyl-L-methionine]: in assay [1], the “OA pain / joint function” value was “equal to NSAIDs”.

As for “substance P (RPKPQQFFGLM; ends and bridges not checked; UniProt P20366 58-68, looked up) [SP, tachykinin neuropeptide, substance P]”, the “tonic pain / analgesia in the formalin test” value in assay [2] is recorded as “inhibit tonic pain”.

For the compound `CCN[C@@H](C)Cc1cccc(C(F)(F)F)c1` [d-fenfluramine], the “consumption of a sucrose solution” value in assay [3] (non-deprived rats) is on record as “reduced”.

Regarding `[Ca+2]` [calcium], in assay [4] (adults), the “lower body weight per 300 mg increment of regular intake” value is 2.5 to 3.0 kg. For the same compound, the “weight loss compared to the placebo group” value in assay [4] (approximately 4 years of observation) is on record as “significant weight loss”. The “less body fat per 300 mg increment of regular intake” value in [4] (children) is listed as “about 1 kg”. Moreover, the “reduction of prevalence of overweight and obesity (estimate)” value in assay [4] (increased intake) was 60-80%.

With `N[C@@H](Cc1c[nH]c2ccccc12)C(=O)O` [tryptophan], the development of hyperalgesia result in assay [5] is recorded as “blocks”.

Take `O=C1CC[C@@]2(O)[C@H]3Cc4ccc(O)c5c4[C@@]2(CCN3CC2CC2)[C@H]1O5` [Trexan]: in assay [6], the “average number of days of compliance” value is 37 days.

For the compound `CNCCC(Oc1ccc(C(F)(F)F)cc1)c1ccccc1` (centres unmarked) [fluoxitine], the development of hyperalgesia entry in [5] is “blocks”. In addition, in [3] (normal rats), the “ingestion of saccharin solutions” value was “suppresses”.

For `N[C@@H](Cc1c[nH]c2ccc(O)cc12)C(=O)O` [5-HTP, 5-hydroxy-l-tryptophan], in the assay with release of serotonin, the 5-HT in dialysates result was “immediate increase”.

In the case of `NC(Cc1ccccc1)C(=O)O` (racemic) [dl-phenylalanine], the “psychosocial stress as measured by SCL” value in assay [7] is “reduces stress”.

Regarding `CN1[C@@H]2CC[C@H]1C[C@@H](OC(c1ccccc1)c1ccccc1)C2` [Cogentin], the “release of dopamine formed from 14C-phenylalanine” value (from here on “release of dopamine formed”) in the assay with synaptosomal dopamine is given as “increased”.

Regarding `O=C(O)CCc1ccccc1` [hydrocunnamic acid, reference compound], in [8], the alcohol preference entry is recorded as “significantly reduced” and the brain enkephalins entry is “brain changes of the enkephalins”.

In the case of `CC(N)Cc1ccccc1` (centres unmarked) [Amphetamine], the “release of dopamine formed” value in the assay on synaptosomal dopamine is on record as “increased”.

With `N[C@H](Cc1ccccc1)C(=O)O` [d-phenylalanine], in [8], the alcohol preference result was “significantly reduced” and the brain enkephalins result is “brain changes of the enkephalins”.

For the compound CHONDROITIN SULFATE, the “OA pain / joint function” value in assay [1] was “significant improvement in pain and inflammation and improved joint function”.

Turning to `O=S(=O)([O-])[O-].[O]=[V+2]` [vanadyl, Vanadyl sulfate], the blood sugar levels entry in [9] is “very effective in normalizing blood sugar levels”.

Turning to `CC(C)CC(N(C)C)C1(c2ccc(Cl)cc2)CCC1` (centres unmarked) [Sibutramine], the “serotonin and dopamine concentrations in striatal and hypothalamic brain regions” value in [10] (higher doses) was “increased”. Further, the “serotonin and dopamine concentrations in dialysates” value in [10] (low doses) is given as “no effect”.

With `CCn1cc(C(=O)O)c(=O)c2ccc(Cc3ccccc3)nc21` [Amfoelic acid], in the assay on synaptosomal dopamine, the “release of dopamine formed” value is on record as “net release”.

With gurmarin, in assay [11], the “sweet taste of glucose and sucrose” value was “block”.

For `CCCN1CCc2cccc3c2[C@H]1Cc1ccc(O)c(O)c1-3` [n-propylnor-apomorphine], the “symptoms after withdrawal of opiates” value in assay [12] was “significantly suppresses”.

Regarding `Oc1cc2c(cc1O)C(c1ccccc1)CNCC2` (centres unmarked) [SKF 38393], the “persistent phase of formalin-induced nociception” value at D2 receptors in the Nacc is “without effect”.

For `CN(C)CCCN1c2ccccc2CCc2ccc(Cl)cc21` [clomipramine], in assay [5], the development of hyperalgesia entry is reported as “blocks”.

On to `N[C@H]1C(O)O[C@H](CO)[C@@H](O)[C@@H]1O` (some centres unmarked) [glucosamine], for which the “progression of the disease” value in [1] (knee OA, three years) is recorded as “slowed, if not stopped”.

Regarding `CCN1CCC[C@H]1CNC(=O)c1c(O)c(Cl)cc(Cl)c1OC` [raclopride], the “persistent phase of formalin-induced nociception” value on D2 receptors in the Nacc is “blocked”.

With `CN1CC[C@]23c4c5ccc(O)c4O[C@H]2[C@@H](O)C=C[C@H]3[C@H]1C5` [morphine], the “tonic pain / analgesia in the formalin test” value in [2] is listed as “induces analgesia”. For the same compound, in assay [13], the food intake entry is reported as “decreased food intake”.

Regarding `O=C(OC[C@H]1O[C@@H](OC(=O)c2cc(O)c(O)c(OC(=O)c3cc(O)c(O)c(O)c3)c2)[C@H](OC(=O)c2cc(O)c(O)c(OC(=O)c3cc(O)c(O)c(O)c3)c2)[C@@H](OC(=O)c2cc(O)c(O)c(OC(=O)c3cc(O)c(O)c(O)c3)c2)[C@@H]1OC(=O)c1cc(O)c(O)c(OC(=O)c2cc(O)c(O)c(O)c2)c1)c1cc(O)c(O)c(OC(=O)c2cc(O)c(O)c(O)c2)c1` [Tannic Acid], on insulin receptor (IR), the “expression of key genes for adipogenesis (PPAR-gamma 2; c-fos; c-jun and c-myc)” value is on record as “inhibit”; the “phosphorylation of the insulin receptor (IR)” value is “induces phosphorylation”; the “translocation of the glucose transporter (GLUT 4)” value is recorded as “translocation”.

(Values after patent US20060062859A1, “Composition and method to optimize and customize nutritional supplement formulations by measuring genetic and metabolomic contributing factors to disease diagnosis, stratification, prognosis, metabolism, and therapeutic outcomes” (priority 2004, published 2006).)
